# From patent US20080118494A1, “Compositions For Detection Of Latent Hiv Reactivation And Methods Of Using The Same” (priority 2004, published 2008)
# How the values were obtained:
# Type in all cases: cell-based
# [1] = tested on: CD28 mediated HIV-1 reactivation in J89GFP cells; assay: Inhibition of activating anti-CD28 antibody (5D10) mediated HIV-1 reactivation in J89GFP cells; details: J89GFP pretreated, then stimulated with 5D10; inhibitors 1 μM
# Experimental: The results are representative for five independent experiments. […] (C) J89GFP cells were pretreated for two hours with the specific ERK-inhibitor U0126 (control: U0124) or the specific p38-inhibitor SB202190 (control: SB202474) and then stimulated with activating anti-CD28 antibody 5D10 (1 μg/ml). Level of reactivation was measured as %-EGFP^+ cells using flow cytometry. Results represent the mean ±S.D. of three independent experiments.
# [2] = tested on: JEGFP cells; details: 10,000 JEGFP cells/well, 384-well plate, increasing amounts of compound
# Experimental: JEGFP cells were seeded at a cell density of 1×10^4 cells/well into a 384-well plate and left untreated (Control) or treated with a low concentration of daunorubicin (0.0001 μg/ml). EGFP fluorescence as a measure of cell proliferation was then determined over a period of four days.
# Influence of altered cell proliferation, cell viability and compound auto-fluorescence on EGFP fluorescence intensity. […] For example, compounds that have fluorochrome characteristics in the same excitation and emission range as EGFP can unspecifically increase the fluorescence signal and can cause false positive hits. On the other hand, too high concentrations of compounds that can reactivate latent HIV-1 infection, but within the chosen concentration range, either inhibit cell proliferation or decrease cell viability can result in false negative hits. […] Compounds that unspecifically increase EGFP expression in the latently infected LWI cells due to their fluorochrome characteristics also increase EGFP fluorescence in these cells, and can be detected as false positive hits. […] As JEGFP cells divide every 24 h and EGFP fluorescence intensity, when measured by plate based fluorometry, directly correlates with the cell density (FIG. 5), any influence of the tested compound on cell proliferation or cell viability can be immediately indicated by a drop in EGFP fluorescence. […]
# [3] = tested on: latent HIV-1 infection in bulk population of latently infected JLTRG cells; assay: Reactivation of latent HIV-1 in a bulk population of latently infected cells, flow cytometry; details: optimal concentration of each compound, day 57 bulk population, 100,000 viable cells counted
# Experimental: (A) Jurkat cells were infected with an EGFP expressing, replication incompetent reporter virus and the level of productive HIV-1 infection at each indicated time-point was directly assessed by flow cytometric analysis for EGFP expression (untreated; black circles). Levels of initial non-productive and later on latent HIV-1 infection was determined 24 hours following TNF-α stimulation (black squares). The results represent the mean ±S.D. of three independent experiments.
# a) Quantification of the HIV-1 reactivating capabilities of test compounds. Following infection, HIV-1 integrates into the cellular genome. Integration is random, although HIV-1 preferentially integrates into euchromatin structures. Latency development can be thus influenced by a multitude of factors that alter gene expression or DNA structure, such as divergent gene expression patterns or the cell cycle stage at the time point of viral integration. Although the reporter cell lines are representative for the majority of latently infected cells and reliably identify most reactivating agents during the screening effort, they can not allow quantification of the capability of the individual compounds to reactivate HIV-1 infection from a diverse population of latently infected cells. To account for the influence that the side of integration of a latent virus can have on a compounds ability to reactivate the virus, a bulk population of latently infected cells (FIG. 7) was established. Following infection of JLTRG cells with HIV-1 NL43, a rapid increase of the level of infection can be observed. On day 3, an average 27% of the cells were productively infected. […] Until day 15, the percentage of productively infected cells rapidly declined to 3% of the overall cell population. At this time point, an additional 5% of the cells were non-productively infected. […] Since 1×10^6 cells were initially infected, and virus mediated inhibition of cell proliferation influences the relative level of infection over time can be excluded, it can be calculated that the latently infected cell population should consist of […] individual latently infected cells. This bulk population of cells allows quantification of the capability of the respective compounds to reactivate latent HIV-1. […] Each compound was titrated over a two-log concentration range to allow for optimal reactivation. The results for the optimal concentration of each compound are depicted in FIG. 7B. […] TNF-α (10 ng/ml) reactivated latent HIV-1 infection in 5% of the cells, whereas the DNA histone deacetylase inhibitors trichostatin A (TSA) and sodium butyrate (NaBu) reactivated latent HIV-1 infection in only 3% or 2.5% of the cells, respectively. To achieve an accurate estimate of the differences in the capability of different agents to reactivate HIV-1 infection it is important to run a sufficiently high number of cells. For this flow cytometry based analysis, 100,000 cells viable per sample were counted.
# [4] = tested on: HIV-1 Tat / HIV-1 transcription in J89GFP cells; assay: Suppression of TNF-α mediated HIV-1 reactivation in J89GFP cells by Tat inhibitor; details: 10 μM
# Experimental: EGFP expression following TNF-α (1 ng/ml) mediated reactivation of latent HIV-1 infection in J89GFP cells in the presence or absence of Ro24-7429 (10 μM). Following stimulation, area (A+B) represents the total amount of virus produced over a two day period of time, whereas area B represents the amount of virus produced in the presence of Ro24-7429. Results represent the mean ±S.D. of three independent experiments.
# The latently HIV-1 infected reporter T cell line J89GFP (Kutsch et al., 2002) was pretreated with the respective compound and then stimulated with various concentrations of TNF-α. As reactivation of latent HIV-1 is dependent on Tat activity, a sufficiently potent Tat inhibitor would suppress HIV-1 reactivation as indicated by […] in EGFP fluorescence. […] Levels of reactivation with respect to the percentage of HIV-1 positive cells, as well as the EGFP MCF intensity were identical. Whereas EGFP expression in TNF-α treated J89GFP in the absence of Ro24-7429 continued to increase until 96 h post stimulation, EGFP MCF peaked after 48 h, reaching 50% of the maximal EGFP MCF seen in the absence of Ro24-7429, and the slowly declined again (FIG. 14). The observed increase of EGFP fluorescence in TNF-α treated J89GFP cells can be described as an invasion kinetics of the first order, whereas the kinetics of EGFP expression following TNF-α mediated reactivation of HIV-1 in the presence of Ro24-7429 can be best described by a Bateman function, that describes onset and elimination of HIV-1 expression. Again, integration of the equation describing each curve allows for the determination of the relative amount of virus being produced in the critical 2 days time frame. Area (A+B) represents the amount of virus produced following reactivation, and Area B represents the amount of virus produced in the presence of Ro24-7429.
smiles,measurement,setting,value
N#CC(=C(/N)Sc1ccccc1N)/C(C#N)=C(\N)Sc1ccccc1N [U0126],effect on HIV-1 reactivation by activating anti-CD28 antibody,[1],efficiently abrogated the activating effect of the antibody and blocked HIV-1 reactivation
COc1cccc2c1C(=O)c1c(O)c3c(c(O)c1C2=O)C[C@@](O)(C(C)=O)C[C@@H]3O[C@H]1C[C@H](N)[C@H](O)[C@H](C)O1 [daunorubicin],EGFP expression as measure of cell proliferation/viability,[2],sharp drop in EGFP expression
Oc1ccc(-c2nc(-c3ccncc3)c(-c3ccc(F)cc3)[nH]2)cc1 [SB202190],effect on HIV-1 reactivation by activating anti-CD28 antibody,[1],efficiently abrogated the activating effect of the antibody and blocked HIV-1 reactivation
CC(=O)O[C@@]12C[C@@H](C)[C@@]3(O)[C@@H](C=C(CO)C[C@]4(O)C(=O)C(C)=C[C@@H]34)[C@@H]1C2(C)C [prostratin],cells in which latent HIV-1 infection was reactivated,[3],6%
CNC1=Nc2ccc(Cl)cc2C(c2ccc[nH]2)=NC1 [Ro24-7429],influence on the level of HIV-1 expression during the first 24 h,"[4]; TNF-α 1 ng/ml, first 24 h",had no influence on the level of HIV-1 expression
same,inhibition of virus production,"[4]; TNF-α 1 ng/ml, initial 2 days period, from integration of EGFP curves",20%
same,peak EGFP MCF relative to maximal EGFP MCF in the absence of inhibitor,"[4]; TNF-α 1 ng/ml, peak after 48 h",50%
same,suppression of reactivation of latent HIV-1,[4]; in the presence of 1 ng/ml TNF-α,not capable of suppressing reactivation of latent HIV-1 infection
"CCCC(=O)[O-].[Na+] [NaBu, sodium butyrate]",cells in which latent HIV-1 infection was reactivated,[3],2.5%
"CC(/C=C/C(=O)NO)=C\[C@@H](C)C(=O)c1ccc(N(C)C)cc1 [TSA, trichostatin A]",cells in which latent HIV-1 infection was reactivated,[3],3%
